In patent publication US8865623B2, “Herbicidally active cyclic diones and derivatives thereof, processes for their preparation, compositions, and method of controlling weeds” (Syngenta Limited, priority 2009, dated 2014):

Tests used:
Assay type in all cases: in vivo
[1] = test system: Alopecurus myosuroides (ALOMY); test: Pre-emergence herbicidal activity, glasshouse pot test; conditions: Alopecurus myosuroides, 312 h; Rate 250 g/ha; pre-emergence spray; evaluated after 13 days; read-out: Pre-emergence activity ALOMY (100=total damage to plant; 0=no damage to plant)
Experimental: (§1) Seeds of a variety of test species were sown in standard soil in pots. After cultivation for one day (pre-emergence) or after 8 days cultivation (post-emergence) under controlled conditions in a glasshouse (at 24/16° C., day/night; 14 hours light; 65% humidity), the plants were sprayed with an aqueous spray solution derived from the formulation of the technical active ingredient in acetone/water (50:50) solution containing 0.5% Tween 20 (polyoxyethelyene sorbitan monolaurate, CAS RN 9005-64-5). The test plants were then grown in a glasshouse under controlled conditions in a glasshouse (at 24/16° C., day/night; 14 hours light; 65% humidity) and watered twice daily. After 13 days for pre and post-emergence, the test was evaluated (100=total damage to plant; 0=no damage to plant).
(§2) Lolium perenne (LOLPE), Alopecurus myosuroides (ALOMY), Echinochloa crus-galli (ECHCG), and Avena fatua (AVEFA).

[2] = test system: Avena fatua (AVEFA); test: as above; conditions: Avena fatua, 312 h; Rate 250 g/ha; pre-emergence spray; evaluated after 13 days; read-out: Pre-emergence activity AVEFA (100=total damage to plant; 0=no damage to plant)
Experimental: as §1, §2

[3] = test system: Echinochloa crus-galli (ECHCG); test: as above; conditions: Echinochloa crus-galli, 312 h; Rate 250 g/ha; pre-emergence spray; evaluated after 13 days; read-out: Pre-emergence activity ECHCG (100=total damage to plant; 0=no damage to plant)
Experimental: as §1, §2

[4] = test system: Lolium perenne (LOLPE); test: as above; conditions: Lolium perenne, 312 h; Rate 250 g/ha; pre-emergence spray; evaluated after 13 days; read-out: Pre-emergence activity LOLPE (100=total damage to plant; 0=no damage to plant)
Experimental: as §1, §2

[5] = test system: Alopecurus myosuroides (ALOMY); test: Post-emergence herbicidal activity, glasshouse pot test; conditions: Alopecurus myosuroides, 312 h, rate 250 g/ha, evaluated after 13 days, glasshouse, read-out: Post-emergence activity ALOMY (100=total damage to plant; 0=no damage to plant)
Experimental: as §1, §2

[6] = test system: Avena fatua (AVEFA); test: as above; conditions: Avena fatua, 312 h, rate 250 g/ha, evaluated after 13 days, glasshouse, read-out: Post-emergence activity AVEFA (100=total damage to plant; 0=no damage to plant)
Experimental: as §1, §2

[7] = test system: Echinochloa crus-galli (ECHCG); test: as above; conditions: Echinochloa crus-galli, 312 h, rate 250 g/ha, evaluated after 13 days, glasshouse, read-out: Post-emergence activity ECHCG (100=total damage to plant; 0=no damage to plant)
Experimental: as §1, §2

[8] = test system: Lolium perenne (LOLPE); test: as above; conditions: Lolium perenne, 312 h, rate 250 g/ha, evaluated after 13 days, glasshouse, read-out: Post-emergence activity LOLPE (100=total damage to plant; 0=no damage to plant)
Experimental: as §1, §2

SMILES	pest or weed control at 250 g/ha [1]	pest or weed control at 250 g/ha [2]	pest or weed control at 250 g/ha [3]	pest or weed control at 250 g/ha [4]	pest or weed control at 250 g/ha [5]	pest or weed control at 250 g/ha [6]	pest or weed control at 250 g/ha [7]	pest or weed control at 250 g/ha [8]
CCc1ccc(Oc2ccc(F)cc2F)cc1C1=C(O)CC(C)(C)CC1=O [Example A-47]	50%	0%	90%	40%	30%	10%	80%	30%
CCc1ccc(Oc2ccc(C#N)c(C#N)c2)cc1C1=C(O)C(C)(C)OC(C)(C)C1=O [Example A-77]	40%	20%	70%	30%	60%	30%	70%	30%
CCc1ccc(Oc2ccc(F)c(C)c2)cc1C1=C(O)C(C)(C)OC(C)(C)C1=O [Example A-179]	0%	0%	–	0%	0%	0%	20%	20%
CCc1ccc(Oc2ccc(OC(F)(F)F)cc2)cc1C1=C(O)C(C)(C)OC(C)(C)C1=O [Example A-242]	70%	40%	–	80%	100%	100%	100%	100%
CCc1ccc(Oc2ccc(Cl)cc2)cc1C1=C(O)C(C)(C)OC(C)(C)C1=O [Example A-4]	40%	0%	100%	–	80%	0%	100%	–
Cc1ccc(Oc2ccc(Cl)cc2Cl)cc1C1=C(O)C(C)(C)OC(C)(C)C1=O [Example A-2]	0%	0%	0%	–	60%	50%	90%	–
Cc1ccc(Oc2ccc(Cl)cc2)cc1C1=C(O)C(C)(C)OC(C)(C)C1=O [Example A-1]	0%	0%	0%	–	20%	0%	60%	–
CCc1ccc(Oc2ccc(Cl)cc2C)cc1C1=C(O)C(C)(C)OC(C)(C)C1=O [Example A-180]	0%	0%	–	0%	0%	0%	30%	10%
CCc1ccc(Oc2cnc3cc(Cl)ccc3n2)cc1C1=C(O)[C@@H]2CC[C@](C)(C1=O)C2(C)C [Example A-243]	90%	80%	–	100%	100%	100%	100%	100%
CCc1ccc(Oc2ccc(Br)cc2F)cc1C1=C(O)C(C)(C)OC(C)(C)C1=O [Example A-7]	60%	60%	100%	–	90%	70%	100%	–
CCc1ccc(Oc2ccccc2Cl)cc1C1=C(O)C(C)(C)OC(C)(C)C1=O [Example A-6]	0%	0%	30%	–	0%	0%	70%	–
CCc1ccc(Oc2cccc(Cl)c2)cc1C1=C(O)C(C)(C)OC(C)(C)C1=O [Example A-5]	0%	0%	90%	–	20%	0%	90%	–
